# Assay results as given in patent publication US9884040B2, “Desethylamiodarone for use in cancer treatment” (PÉCSI TUDOMÁNYEGYETEM, priority 2015, dated 2018).
# What was measured:
# [1] = system: DU-145 prostate cancer cell line; assay: MTT cell viability assay, DU-145; format: cell-based; conditions: increasing concentrations, 24, 48 and 72 hours
# Experimental: (§1) The cells were seeded into 96-well plates at a starting density of 10^4 cells per well and cultured overnight before DEA was added to the medium for 24 h and 48 h. The medium was changed to a fresh one containing 0.5% of 3-[4,5-dimethylthiazol-2-yl]-2,5-diphenyl-tetrazolium bromide (MTT+) for an additional 3 hours, then the MTT+ reaction was terminated by adding HCl to 10 mM final concentration. The amount of blue formazan dye formed from MTT+ was proportional to the number of live cells, and was determined with an Anthos Labtech 2010 ELISA reader at 550 nm. All experiments were run in at least 4 replicates and repeated 3 times.
# 145 cells were exposed to increasing concentrations of DEA for 24, 48 and 72 hours. Viability of the cells was detected by the MTT method. Untreated cells served as controls.
# [2] = system: B16F10 (mice melanoma) cells; assay: MTT cell viability assay, B16F10; format: cell-based; conditions: 24 h and 48 h; 2.5, 5, 7.5 or 10 μM; vs untreated control
# Experimental: The cells were seeded into 96-well plates at a starting density of 10^4 cells per well and cultured overnight before DEA was added to the medium for 24 h and 48 h. […] The amount of blue formazan dye formed from MTT+ was proportional to the number of live cells, and was determined with an Anthos Labtech 2010 ELISA reader at 550 nm. All experiments were run in at least 4 replicates and repeated 3 times. The effect of desethylamiodarone was measured in T24 (human urinary bladder carcinoma), A549 (human lung adenocarcinoma epithelial), B16F10 (mice melanoma), HeLa (human cervix adenocarcinoma), 4T1 (mouse mammary carcinoma) cell lines. Cells were treated with increasing concentrations of desethylamiodarone for 24 and 48 h. Cell growth was assessed by measuring metabolic activity, which reflects viability in the MTT-test in the course of 24 h, 48 h of continued exposure to desethylamiorarone. The untreated cells served as negative controls. The viability of the cells, was lower in all DEA-treated than in the control group, with the difference being statistically significant. […] B16F10 cells were incubated with the indicated concentrations (2.5, 5, 7.5 or 10 μM) of desethylamiodarone for 24 h (A) and 48 h (B) and cell viability was measured by MTT assay (filled bars). Untreated cells served as controls. […]
# [3] = system: p42/44 mitogen-activated protein kinase (MAPK) (ERK1/2); assay: Western blot of ERK phosphorylation; format: cell-based, human; conditions: 5-10-15 μM, 6 hours; T24, B16F10 cell lines
# Experimental: (§2) 10^6 cells were seeded into regular plates and treated as for the cell viability assay. Cells were harvested at intervals in a chilled lysis buffer containing 0.5 mM sodium-metavanadate, 1 mM ethylenediaminetetraacetic acid (EDTA) and protease inhibitor cocktail in phosphate-buffered saline (PBS). Probes were boiled and subjected to 10% sodium dodecyl sulphate polyacrylamide gel electrophoresis then transferred to nitrocellulose membranes. The membranes were blocked in 5% low fat milk for 1.5 h at room temperature then exposed to primary antibodies at 4° C. overnight in blocking solution. Appropriate horseradish peroxidase-conjugated secondary antibodies were used at a 1:5000 dilution (anti-mouse and anti-rabbit IgGs; Sigma-Aldrich, Steinheim, Germany) and visualized by enhanced chemiluminescence (Amersham Biosciences, Piscataway, N.J., USA). All experiments were repeated 3 times.
# (§3) To determine the downstream consequences of DEA treatment, we examined the phosphorylation status of AKT (protein kinase B), GSK-3β and p42/44 mitogen-activated protein kinase (MAPK) (ERK1/2) by immunoblotting in T24 (human urinary bladder carcinoma), B16F10 (mice melanoma) cell lines. Cells were cultured in the presence of 5-10-15 μM DEA for 6 hours. The cells were prepared and western blot analysis was carried out to perform both phosphorylated and non-phosphorylated forms of the previously listed proteins. […]
# [4] = system: HeLa human cervix adenocarcinoma cell line; assay: Radiotherapy plus DEA, colony formation, HeLa; format: cell-based; conditions: 1Gy or 2Gy single dose alone or with 500 nM-3 μM DEA
# Experimental: (§4) Cells were trypsinized and plated in triplicate into 6-well plates at 500 cells/well. Cells were treated with different concentration of DEA and irradiated with a dose of 1.0 and 2.0 Grays. A telecobalt (Therathron 780 C) external irradiation equipment (average photon energy of 1.25 MeV) will be applied for irradiating cells. After 7 days of incubation, cells were washed and stained with Coomassie-blue, and the colonies containing more than 50 cells were counted. The number of colonies were determined and normalized to the number of colonies in controls.
# (§5) To examine the effects of a DEA on the effectiveness of radiotherapy the cells were treated with 1Gy or 2Gy single dose irradiation alone or combined with 500 nM-3 μM DEA.
# The cells were treated with 1Gy or 2Gy single dose irradiation alone or combined with 500 nM-3 μM DEA. Untreated cells served as controls. The results are mean±SEM of 3 independent experiments performed in at least quadruplicate. p<0.05, compared to the corresponding control group.
# AKT (protein kinase B) = assay: Western blot of Akt phosphorylation; format: cell-based, human; conditions: 5-10-15 μM, 6 hours; T24, B16F10 cell lines
# Experimental: as §2, §3
# [5] = clinically relevant concentrations; cited from earlier work
# [6] = system: A549 human lung adenocarcinoma epithelial cell line; assay: Radiotherapy plus DEA, colony formation, A549; format: cell-based; conditions: 1Gy or 2Gy single dose alone or with 500 nM-3 μM DEA
# Experimental: as §4, §5
# The cells were treated with 1Gy or 2Gy single dose irradiation alone or combined with 500 nM-3 μM DEA. Untreated cells served as controls. The results are mean±SEM of 3 independent experiments performed in at least quadruplicate. p<0.05 compared to the corresponding control group.
# [7] = system: HeLa (human cervix adenocarcinoma) cells; assay: MTT cell viability assay, HeLa; format: cell-based; conditions: increasing concentrations, 24 and 48 h
# Experimental: as §1
# The effect of desethylamiodarone was measured in T24 (human urinary bladder carcinoma), A549 (human lung adenocarcinoma epithelial), B16F10 (mice melanoma), HeLa (human cervix adenocarcinoma), 4T1 (mouse mammary carcinoma) cell lines. Cells were treated with increasing concentrations of desethylamiodarone for 24 and 48 h. Cell growth was assessed by measuring metabolic activity, which reflects viability in the MTT-test in the course of 24 h, 48 h of continued exposure to desethylamiorarone. The untreated cells served as negative controls. The viability of the cells, was lower in all DEA-treated than in the control group, with the difference being statistically significant.
structure (smiles),measurement,setting,value
"CCCCc1oc2ccccc2c1C(=O)c1cc(I)c(OCCNCC)c(I)c1 [DEA, (2-butyl-3-benzofuranyl)[4-[2-(ethylamino)ethoxy]-3,5-diiodophenyl]-methanone]",Viability of DU-145 cells (MTT),[1],induces cell death
same,Viability of B16F10 cells (MTT),[2],Significantly different from control group at p<0.01
same,ERK phosphorylation,[3],a decrease in its phosphorylation
same,"Radiosensitization, colony formation, HeLa",[4],sensitize cervix cancer to irradiation
same,Akt (Ser473) phosphorylation,AKT (protein kinase B),repressed Akt (Ser473) phosphorylation in a concentration-dependent manner
same,Action potential duration (class III antiarrhythmic effect),[5],significantly increasing the action potential duration
same,Maximum rate of depolarization (class I antiarrhythmic effect),[5],decreasing the maximum rate of depolarization
same,"Radiosensitization, colony formation, A549",[6],sensitize lung cancer to irradiation
same,Viability of HeLa cells (MTT),[7],significantly inhibited the viability
